Measurements taken from US12440484B2, “1,3,4-oxadiazole homophthalimide derivative compounds as histone deacetylase 6 inhibitor, and the pharmaceutical composition comprising the same” (Chong Kun Dang Pharmaceutical Corp., priority 2019, dated 2025).

Experiments:
HDAC6 human recombinant = HDAC6 human recombinant (Homo sapiens (Human), UniProt Q9UBN7); assay: HDAC enzyme activity inhibition (in vitro), HDAC6 assay; assay type: biochemical; conditions: samples at 0.1, 1, 10, 100 and 1000 nM; 37° C. 60 minutes; fluorescence Ex 390, Em 460
HDAC6 human recombinant, sequence (Q9UBN7 whole entry): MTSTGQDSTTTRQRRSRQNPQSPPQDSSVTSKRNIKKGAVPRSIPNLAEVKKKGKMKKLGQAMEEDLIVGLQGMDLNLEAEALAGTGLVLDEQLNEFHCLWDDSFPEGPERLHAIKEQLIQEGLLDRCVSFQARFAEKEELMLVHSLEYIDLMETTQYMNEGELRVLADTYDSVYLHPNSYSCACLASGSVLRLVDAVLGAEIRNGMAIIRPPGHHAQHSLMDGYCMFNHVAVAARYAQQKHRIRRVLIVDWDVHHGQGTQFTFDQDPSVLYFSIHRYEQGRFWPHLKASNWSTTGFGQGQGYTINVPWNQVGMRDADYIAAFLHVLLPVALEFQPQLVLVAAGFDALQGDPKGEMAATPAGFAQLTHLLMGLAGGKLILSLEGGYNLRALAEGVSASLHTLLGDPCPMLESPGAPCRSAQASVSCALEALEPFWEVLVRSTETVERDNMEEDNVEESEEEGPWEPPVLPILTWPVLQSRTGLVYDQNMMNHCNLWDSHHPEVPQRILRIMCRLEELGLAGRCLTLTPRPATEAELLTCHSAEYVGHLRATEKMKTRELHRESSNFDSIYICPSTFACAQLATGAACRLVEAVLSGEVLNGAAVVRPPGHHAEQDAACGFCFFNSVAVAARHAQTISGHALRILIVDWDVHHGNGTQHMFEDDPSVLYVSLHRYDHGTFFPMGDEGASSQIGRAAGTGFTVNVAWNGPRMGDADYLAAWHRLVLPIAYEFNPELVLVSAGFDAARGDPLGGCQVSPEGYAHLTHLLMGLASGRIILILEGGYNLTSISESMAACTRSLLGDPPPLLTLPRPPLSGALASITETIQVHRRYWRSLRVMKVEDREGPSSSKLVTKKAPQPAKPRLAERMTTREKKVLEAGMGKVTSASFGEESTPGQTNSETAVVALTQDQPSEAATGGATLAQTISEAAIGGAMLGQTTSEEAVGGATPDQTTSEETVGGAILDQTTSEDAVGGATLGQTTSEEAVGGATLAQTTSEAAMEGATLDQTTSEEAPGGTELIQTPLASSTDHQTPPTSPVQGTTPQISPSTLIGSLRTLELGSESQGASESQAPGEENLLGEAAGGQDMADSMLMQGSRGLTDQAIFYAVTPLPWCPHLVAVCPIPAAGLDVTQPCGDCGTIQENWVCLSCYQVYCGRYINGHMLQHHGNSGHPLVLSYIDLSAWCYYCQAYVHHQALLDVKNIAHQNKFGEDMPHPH

HDAC1 = HDAC1 (Homo sapiens (Human), UniProt Q13547); assay: HDAC enzyme activity inhibition (in vitro), HDAC1 Fluorimetric Drug Discovery Assay Kit; assay type: biochemical; conditions: samples at 100, 1000 and 10000 nM; 37° C. 60 minutes; fluorescence Ex 390, Em 460
HDAC1, sequence (Q13547 whole entry): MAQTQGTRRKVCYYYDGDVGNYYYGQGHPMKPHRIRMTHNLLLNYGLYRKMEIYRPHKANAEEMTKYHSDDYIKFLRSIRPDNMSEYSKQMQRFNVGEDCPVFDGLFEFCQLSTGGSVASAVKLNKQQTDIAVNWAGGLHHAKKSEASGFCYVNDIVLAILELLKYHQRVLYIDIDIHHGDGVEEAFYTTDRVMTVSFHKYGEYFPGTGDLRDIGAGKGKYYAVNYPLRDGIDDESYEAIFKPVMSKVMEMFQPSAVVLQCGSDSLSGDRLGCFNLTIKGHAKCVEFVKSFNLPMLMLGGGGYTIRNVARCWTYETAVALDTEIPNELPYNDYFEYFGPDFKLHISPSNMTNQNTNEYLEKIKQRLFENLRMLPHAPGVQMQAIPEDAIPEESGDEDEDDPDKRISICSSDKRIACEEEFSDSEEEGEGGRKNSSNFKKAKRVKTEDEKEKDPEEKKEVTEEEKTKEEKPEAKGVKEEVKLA

Compound | IC50 (HDAC6 human recombinant) [µM] | IC50 (HDAC1) [µM]
CN1CC=C(c2ccc3c(c2)C(C)(C)C(=O)N(Cc2ccc(-c4nnc(C(F)F)o4)cn2)C3=O)CC1 [Compound 42, 2-((5-(5-(difluoromethyl)-1,3,4-oxadiazole-2-yl)pyridine-2-yl)methyl)-4,4-dimethyl-6-(1-methyl-1,2,3,6-tetrahydropyridine-4-yl)isoquinoline-1,3(2H,4H)-dione] | 0.035 | > 10
Cn1c(=O)n(Cc2ccc(-c3nnc(C(F)F)o3)cn2)c(=O)c2ccc(Br)cc21 [Compound 97, 7-bromo-3-((5-(5-(difluoromethyl)-1,3,4-oxadiazole-2-yl)pyridine-2-yl)methyl)-1-methylquinazoline-2,4(1H,3H)-dione] | 0.061 | > 10
CN(C)[C@@H]1CCN(c2ccc3c(c2)C(C)(C)C(=O)N(Cc2ccc(-c4nnc(C(F)F)o4)cn2)C3=O)C1 [Compound 32, (R)-2-((5-(5-(difluoromethyl)-1,3,4-oxadiazole-2-yl)pyridine-2-yl)methyl)-6-(3-(dimethylamino)pyrrolidine-1-yl)-4,4-dimethylisoquinoline-1,3(2H,4H)-dione] | 0.025 | > 10
O=C1Cc2ccccc2C(=O)N1Cc1ccc(-c2nnc(C(F)F)o2)cn1 [Compound 65, 2-((5-(5-(difluoromethyl)-1,3,4-oxadiazole-2-yl)pyridine-2-yl)methyl)isoquinoline-1,3(2H,4H)-dione] | 0.133 | > 10
Cn1c(=O)n(Cc2ccc(-c3nnc(C(F)F)o3)cn2)c(=O)c2cc(-c3ccoc3)ccc21 [Compound 88, 3-((5-(5-(difluoromethyl)-1,3,4-oxadiazole-2-yl)pyridine-2-yl)methyl)-6-(furan-3-yl)-1-methylquinazoline-2,4(1H,3H)-dione] | 0.021 | > 10
CCN1CCN(c2ccc3c(c2)C(C)(C)C(=O)N(Cc2ccc(-c4nnc(C(F)F)o4)cn2)C3=O)CC1 [Compound 39, 2-((5-(5-(difluoromethyl)-1,3,4-oxadiazole-2-yl)pyridine-2-yl)methyl)-6-(4-ethylpiperazine-1-yl)-4,4-dimethylisoquinoline-1,3(2H,4H)-dione] | 0.018 | > 10
CC1(C)C(=O)N(Cc2ccc(-c3nnc(C(F)F)o3)cn2)C(=O)c2cc(-c3ccccc3F)ccc21 [Compound 109, 2-((5-(5-(difluoromethyl)-1,3,4-oxadiazole-2-yl)pyridine-2-yl)methyl)-7-(2-fluorophenyl)-4,4-dimethylisoquinoline-1,3(2H,4H)-dione] | 0.107 | > 10
COc1ccc(Cn2c(=O)n(Cc3ccc(-c4nnc(C(F)F)o4)cn3)c(=O)c3ccccc32)cc1 [Compound 13, 3-((5-(5-(difluoromethyl)-1,3,4-oxadiazole-2-yl)pyridine-2-yl)methyl)-1-(4-methoxybenzyl)quinazoline-2,4(1H,3H)-dione] | 0.225 | > 10
CC1(C)C(=O)N(Cc2ccc(-c3nnc(C(F)F)o3)cn2)C(=O)c2cc(N3CCOCC3)ccc21 [Compound 52, 2-((5-(5-(difluoromethyl)-1,3,4-oxadiazole-2-yl)pyridine-2-yl)methyl)-4,4-dimethyl-7-morpholinoisoquinoline-1,3(2H,4H)-dione] | 0.04 | > 10
CC(C)N1CC=C(c2ccc3c(=O)n(Cc4ccc(-c5nnc(C(F)F)o5)cn4)c(=O)n(C)c3c2)CC1 [Compound 124, 3-((5-(5-(difluoromethyl)-1,3,4-oxadiazole-2-yl)pyridine-2-yl)methyl)-7-(1-isopropyl-1,2,3,6-tetrahydropyridine-4-yl)-1-methylquinazoline-2,4(1H,3H)-dione] | 0.038 | > 10
CC1(C)C(=O)N(Cc2ccc(-c3nnc(C(F)F)o3)cn2)C(=O)c2ccc(C3CCN(C4CCC4)CC3)cc21 [Compound 64, 6-(1-cyclobutylpiperidine-4-yl)-2-((5-(5-(difluoromethyl)-1,3,4-oxadiazole-2-yl)pyridine-2-yl)methyl)-4,4-dimethylisoquinoline-1,3(2H,4H)-dione] | 0.025 | > 10
CCN1CCN(c2ccc3c(c2)C(CC)(CC)C(=O)N(Cc2ccc(-c4nnc(C(F)F)o4)cn2)C3=O)CC1 [Compound 142, 2-((5-(5-(difluoromethyl)-1,3,4-oxadiazole-2-yl)pyridine-2-yl)methyl)-4,4-diethyl-6-(4-ethylpiperazine-1-yl)isoquinoline-1,3(2H,4H)-dione] | 0.081 | > 10
CCCN1CCC(c2ccc3c(c2)C(=O)N(Cc2ccc(-c4nnc(C(F)F)o4)cn2)C(=O)C3(C)C)CC1 [Compound 143, 2-((5-(5-(difluoromethyl)-1,3,4-oxadiazole-2-yl)pyridine-2-yl)methyl)-4,4-dimethyl-7-(1-propylpiperidine-4-yl) isoquinoline-1,3 (2H,4H)-dione] | 0.021 | > 10
CC(F)(F)CN1CCN(c2ccc3c(c2)C(C)(C)C(=O)N(Cc2ccc(-c4nnc(C(F)F)o4)cn2)C3=O)CC1 [Compound 138, 2-((5-(5-(difluoromethyl)-1,3,4-oxadiazole-2-yl)pyridine-2-yl)methyl)-6-(4-(2,2-difluoropropyl)piperazine-1-yl)-4,4-dimethylisoquinoline-1,3(2H,4H)-dione] | 0.096 | > 10
O=c1[nH]c2ccccc2c(=O)n1Cc1ccc(-c2nnc(C(F)F)o2)cn1 [Compound 14, 3-((5-(5-(difluoromethyl)-1,3,4-oxadiazole-2-yl)pyridine-2-yl)methyl)quinazoline-2,4(1H,3H)-dione] | 0.053 | > 10
CC1(C)C(=O)N(Cc2ccc(-c3nnc(C(F)F)o3)cn2)C(=O)c2ccc(-c3ccco3)cc21 [Compound 74, 2-((5-(5-(difluoromethyl)-1,3,4-oxadiazole-2-yl)pyridine-2-yl)methyl)-6-(furan-2-yl)-4,4-dimethylisoquinoline-1,3(2H,4H)-dione] | 0.049 | > 10
CC1(C)C(=O)N(Cc2ccc(-c3nnc(C(F)F)o3)cn2)C(=O)c2c(-c3ccco3)cccc21 [Compound 82, 2-((5-(5-(difluoromethyl)-1,3,4-oxadiazole-2-yl)pyridine-2-yl)methyl)-8-(furan-2-yl)-4,4-dimethylisoquinoline-1,3(2H,4H)-dione] | 0.092 | > 10
CNC(=O)C1CCN(c2ccc3c(c2)C(C)(C)C(=O)N(Cc2ccc(-c4nnc(C(F)F)o4)cn2)C3=O)CC1 [Compound 56, 1-(2-((5-(5-(difluoromethyl)-1,3,4-oxadiazole-2-yl)pyridine-2-yl)methyl)-4,4-dimethyl-1,3-dioxo-1,2,3,4-tetrahydroisoquinoline-6-yl)-N-methylpiperidine-4-carboxamide] | 0.046 | > 10

Further compounds by falling IC50 (HDAC6 human recombinant), results first:

IC50 (HDAC6 human recombinant) [µM] | IC50 (HDAC1) [µM] | Compound
1.02 | > 10 | O=c1c2ccccc2n(CCN2CCCCC2)c(=O)n1Cc1ccc(-c2nnc(C(F)F)o2)cc1 [Compound 11, 3-(4-(5-(difluoromethyl)-1,3,4-oxadiazole-2-yl)benzyl)-1-(2-(piperidine-1-yl)ethyl)quinazoline-2,4(1H,3H)-dione]
0.683 | > 10 | CCC(F)(F)CN1CCN(c2ccc3c(c2)C(C)(C)C(=O)N(Cc2ccc(-c4nnc(C(F)F)o4)cn2)C3=O)CC1 [Compound 139, 6-(4-(2,2-difluorobutyl)piperazine-1-yl)-2-((5-(5-(difluoromethyl)-1,3,4-oxadiazole-2-yl)pyridine-2-yl)methyl)-4,4-dimethylisoquinoline-1,3(2H,4H)-dione]
0.216 | > 10 | COc1ccc(Cn2c(=O)n(Cc3ccc(-c4nnc(C(F)F)o4)cn3)c(=O)c3cc(F)ccc32)cc1 [Compound 66, 3-((5-(5-(difluoromethyl)-1,3,4-oxadiazole-2-yl)pyridine-2-yl)methyl)-6-fluoro-1-(4-methoxybenzyl)quinazoline-2,4(1H,3H)-dione]
0.038 | > 10 | CC1(C)C(=O)N(Cc2ccc(-c3nnc(C(F)F)o3)cn2)C(=O)c2cc(Br)ccc21 [Compound 51, 7-bromo-2-((5-(5-(difluoromethyl)-1,3,4-oxadiazole-2-yl)pyridine-2-yl)methyl)-4,4-dimethylisoquinoline-1,3(2H,4H)-dione]
0.032 | > 10 | CN(C)C(=O)C1CCN(c2ccc3c(c2)C(C)(C)C(=O)N(Cc2ccc(-c4nnc(C(F)F)o4)cn2)C3=O)CC1 [Compound 57, 1-(2-((5-(5-(difluoromethyl)-1,3,4-oxadiazole-2-yl)pyridine-2-yl)methyl)-4,4-dimethyl-1,3-dioxo-1,2,3,4-tetrahydroisoquinoline-6-yl)-N,N-dimethylpiperidine-4-carboxamide]
0.022 | > 10 | CCN1CCN(c2ccc3c(c2)C2(CCC2)C(=O)N(Cc2ccc(-c4nnc(C(F)F)o4)cn2)C3=O)CC1 [Compound 117, 2′-((5-(5-(difluoromethyl)-1,3,4-oxadiazole-2-yl)pyridine-2-yl)methyl)-6′-(4-ethylpiperazine-1-yl)-1′H-spiro[cyclobutane-1,4′-isoquinoline]-1′,3′(2′H)-dione]
0.022 | > 10 | CN1CCN(c2ccc3c(c2)C(=O)N(Cc2ccc(-c4nnc(C(F)F)o4)cn2)C(=O)C3(C)C)CC1 [Compound 118, 2-((5-(5-(difluoromethyl)-1,3,4-oxadiazole-2-yl)pyridine-2-yl)methyl)-4,4-dimethyl-7-(4-methylpiperazine-1-yl)isoquinoline-1,3(2H,4H)-dione]
0.022 | > 10 | CC(C)N1CCN(c2ccc3c(c2)C(C)(C)C(=O)N(Cc2ccc(-c4nnc(C(F)F)o4)cn2)C3=O)CC1 [Compound 26, 2-((5-(5-(difluoromethyl)-1,3,4-oxadiazole-2-yl)pyridine-2-yl)methyl)-6-(4-isopropylpiperazine-1-yl)-4,4-dimethylisoquinoline-1,3(2H,4H)-dione]
